In patent publication US5958950A, “Benzimidazole compounds useful for the treatment of inflammatory disease, atherosclerosis, restenosis or inhibiting lipoxygenase” (Warner-Lambert Company, priority 1998, dated 1999):

The compounds below were run against T1, rabbit reticulocyte 15-LO (Oryctolagus cuniculus, UniProt P12530) (assay: 15-Lipoxygenase Assay: inhibition of 15-LO with linoleic acid as substrate, HPLC method of Auerbach et al.). Conditions: HPLC method; incubation at 4° C. for 10 minutes; read-out: concentration of compounds required to inhibit 50% of the activity of 15-LO (IC50).
T1 construct: rabbit reticulocyte 15-LO; from tissue; host or cells: rabbit reticulocytes
T1 sequence (P12530 1-663): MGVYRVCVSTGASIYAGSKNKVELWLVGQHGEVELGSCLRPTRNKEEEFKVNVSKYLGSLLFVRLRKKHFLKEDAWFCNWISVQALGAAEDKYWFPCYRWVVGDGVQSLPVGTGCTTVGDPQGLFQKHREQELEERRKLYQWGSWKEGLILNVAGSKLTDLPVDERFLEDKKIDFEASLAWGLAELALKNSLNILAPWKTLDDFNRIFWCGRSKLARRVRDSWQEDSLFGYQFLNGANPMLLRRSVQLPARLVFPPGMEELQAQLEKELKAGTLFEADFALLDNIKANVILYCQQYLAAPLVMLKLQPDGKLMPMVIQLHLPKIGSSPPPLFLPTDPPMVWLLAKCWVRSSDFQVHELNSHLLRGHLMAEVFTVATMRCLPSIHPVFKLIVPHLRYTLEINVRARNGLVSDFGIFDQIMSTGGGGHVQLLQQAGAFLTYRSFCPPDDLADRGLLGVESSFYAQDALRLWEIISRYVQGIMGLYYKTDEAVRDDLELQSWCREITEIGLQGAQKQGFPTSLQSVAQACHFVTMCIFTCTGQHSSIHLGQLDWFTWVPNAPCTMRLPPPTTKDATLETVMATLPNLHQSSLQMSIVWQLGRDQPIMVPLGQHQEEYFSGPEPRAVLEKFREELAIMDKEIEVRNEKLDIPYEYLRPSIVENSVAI
Assay type: biochemical
Method: The compounds described above are effective inhibitors of 15-LO when evaluated in standard assays routinely utilized to measure 15-LO activity. Specifically, representative compounds were evaluated by the methods described by Auerbach, et al., Analytical Biochemistry, 1992; 201:375-380.Two in vitro assays were utilized, both utilizing rabbit reticulocyte 15-LO, and linoleic acid as substrate, to enzymatically produce a peroxide oxidation product known as 13(S)-HPODE. N-Benzoyl leucomethylene blue was utilized as a calorimetric reagent for detection and quantification of the peroxide formation. Also, HPLC was utilized to quantify the oxidation following incubation at 4° C. for 10 minutes.
The 15-LO inhibitory activity of representative compounds is presented in Table I. The data column gives the concentration of compounds required to inhibit 50% of the activity of 15-LO (IC50) when measured by the HPLC method of Auerbach, et al. [drawing 10] Wherein W, X, Y and Z are C--H and R1 is hydrogen.

Row | IC50 [nM] | Structure (SMILES)
1 | 115 | c1ccc(-c2csc(-c3nc4ccccc4[nH]3)n2)cc1 [Example 6, 2-(4-Phenyl-thiazol-2-yl)-1H-benzoimidazole]
2 | > 10000 | O=C(NCCCN1CCCCC1)c1csc(-c2nc3ccccc3[nH]2)n1 [Example 32, 2-(1H-Benzoimidazol-2-yl)-thiazole-4-carboxylic acid (3-piperidin-1-yl-propyl)-amide]
3 | 1650 | COc1ccc(-c2csc(-c3nc4ccccc4[nH]3)n2)cc1 [Example 10, 2-[4-(4-Methoxy-phenyl)-thiazol-2-yl]-1H-benzoimidazole]
4 | 390 | COc1ccc(OC)c(-c2csc(-c3nc4ccccc4[nH]3)n2)c1 [Example 15, 2-[4-(2,5-Dimethoxy-phenyl)-thiazol-2-yl]-1H-benzoimidazole]
5 | 200 | Clc1cccc(-c2csc(-c3nc4ccccc4[nH]3)n2)c1 [Example 20, 2-[4-(3-Chloro-phenyl)-thiazol-2-yl]-1H-benzoimidazole]
6 | 189 | Fc1ccc(-c2csc(-c3nc4ccccc4[nH]3)n2)cc1 [Example 3]
7 | 125 | COc1ccccc1-c1csc(-c2nc3ccccc3[nH]2)n1 [Example 9, 2-[4-(2-Methoxy-phenyl)-thiazol-2-yl]-1H-benzoimidazole]
8 | 500 | COc1cccc(-c2csc(-c3nc4ccccc4[nH]3)n2)c1 [Example 8, 2-[4-(3-Methoxy-phenyl)-thiazol-2-yl]-1H-benzoimidazole]
9 | 360 | c1ccc(-c2csc(-c3nc4ccccc4[nH]3)n2)nc1 [Example 1]
10 | 773 | Brc1sc(-c2nc3ccccc3[nH]2)nc1-c1ccccc1 [Example 27, 2-(5-Bromo-4-phenyl-thiazol-2-yl)-1H-benzoimidazole]
11 | 330 | Cc1ccccc1-c1csc(-c2nc3ccccc3[nH]2)n1 [Example 19, 2-(4-o-Tolyl-thiazol-2-yl)-1H-benzoimidazole]
12 | 96 | c1csc(-c2csc(-c3nc4ccccc4[nH]3)n2)c1 [Example 7]
13 | 620 | Clc1ccc(-c2csc(-c3nc4ccccc4[nH]3)n2)cc1 [Example 2]
14 | > 10000 | COc1cccc(OC)c1-c1csc(-c2nc3ccccc3[nH]2)n1 [Example 16, 2-[4-(2,6-Dimethoxy-phenyl)-thiazol-2-yl]-1H-benzoimidazole]
15 | 460 | Brc1ccc(-c2csc(-c3nc4ccccc4[nH]3)n2)cc1 [Example 21, 2-[4-(4-Bromo-phenyl)-thiazol-2-yl]-1H-benzoimidazole]
16 | > 10000 | O=C1c2ccccc2C(=O)N1Cc1csc(-c2nc3ccccc3[nH]2)n1 [Example 25, 2-[2-(1H-Benzoimidazole-2yl)-thiazol-4-ylmethyl]-isoindole-1,3-dione]
17 | > 10000 | c1ccc(-c2ccc(-c3csc(-c4nc5ccccc5[nH]4)n3)cc2)cc1 [Example 11, 2-(4-Biphenyl-4-yl-thiazol-2-yl)-1H-benzoimidazole]
18 | > 10000 | O=C(O)c1sc(-c2nc3ccccc3[nH]2)nc1-c1ccccc1 [Example 29, 2-(lH-Benzoimidazol-2-yl)-4-phenyl-thiazole-5-carboxylic acid]
19 | > 2500 | Oc1ccc(-c2csc(-c3nc4ccccc4[nH]3)n2)cc1 [Example 12, 4-[2-(1H-Benzoimidazol-2-yl)-thiazol-4-yl]-phenol]
20 | 207 | Clc1ccc(Cl)c(-c2csc(-c3nc4ccccc4[nH]3)n2)c1 [Example 5]
21 | > 10000 | Oc1nc(-c2nc3ccccc3[nH]2)sc1-c1ccccc1 [Example 36, 2-(1H-Benzoimidazol-2-yl)-5-phenyl-thiazol-4-ol]
22 | > 2500 | Oc1ccc(-c2csc(-c3nc4ccccc4[nH]3)n2)cc1O [Example 13, 4-[2-(1H-Benzoimidazol-2-yl)-thiazol-4-yl]-benzene-1,2-diol]

Same assay, conditions: marked (P), not explained; read-out: IC50 (P)

Row | IC50 [nM] | Structure (SMILES)
23 | 40 | Oc1ccccc1-c1csc(-c2nc3ccccc3[nH]2)n1 [Example 17, 2-[2-(1H-Benzoimidazol-2-yl)-thiazol-4-yl]-phenol]
24 | 540 | c1ccc2[nH]c(-c3nc(-c4ccncc4)cs3)nc2c1 [Example 37]

Same assay, conditions: marked (Q), not explained; read-out: IC50 (Q)

Row | IC50 [nM] | Structure (SMILES)
25 | 80 | Oc1ccccc1-c1csc(-c2nc3ccccc3[nH]2)n1 [Example 17, 2-[2-(1H-Benzoimidazol-2-yl)-thiazol-4-yl]-phenol]
26 | 810 | c1ccc2[nH]c(-c3nc(-c4ccncc4)cs3)nc2c1 [Example 37]

Same assay, conditions: read-out: 15-LO inhibitory activity, % @ 10 μM

Row | inhibition at 10 µM [%] | Structure (SMILES)
27 | 69 | CCOC(=O)c1sc(-c2nc3ccccc3[nH]2)nc1-c1ccccc1 [Example 28, 2-(1H-Benzoimidazol-2-yl)-4-phenyl-thiazole-5-carboxylic acid ethyl ester]
28 | 91.3 | Oc1ccc(Br)cc1-c1csc(-c2nc3ccccc3[nH]2)n1 [Example 14, 2-[2-(1H-Benzoimidazol-2-yl)-thiazol-4-yl]-4-bromo-phenol]
29 | 1.38 | O=C(O)c1csc(-c2nc3ccccc3[nH]2)n1 [Example 31, 2-(1H-Benzoimidazol-2-yl)-thiazole-4-carboxylic acid]
30 | 25 | CCOC(=O)c1csc(-c2nc3ccccc3[nH]2)n1 [Example 30, 2-(1H-Benzoimidazol-2-yl)-thhiazole-4-carboxylic acid ethyl ester]
31 | 89.2 | O=C(Nc1sc(-c2nc3ccccc3[nH]2)nc1-c1ccccc1)OCc1ccccc1 [Example 34, [2-(1H-Benzoimidazol-2-yl)-4-phenyl-thiazol-5-yl]-carbamic acid benzyl ester]
32 | 45 | N#Cc1cccc(-c2csc(-c3nc4ccccc4[nH]3)n2)c1 [Example 35, 3-[2-(1H-Benzoimidazol-2-yl)-thiazol-4-yl]-benzonitrile]
33 | 25.1 | O=C(Nc1ccccc1)c1csc(-c2nc3ccccc3[nH]2)n1 [Example 33, 2-(1H-Benzoimidazol-2-yl)-thiazole-4-carboxylic acid phenylamide]
34 | 71.6 | Cc1ccc(-c2csc(-c3nc4ccccc4[nH]3)n2)cc1 [Example 18, 2-(4-p-Tolyl-thiazol-2-yl)-1H-benzoimidazole]
